Key:
[1] = tested on: HCT 116, HepG2, and MCF-7 cell lines; experiment: MTT antiproliferative assay, summary over the tested cell lines; format: cell-based; conditions: across the tested cancer cell lines
Description: (§1) The antiproliferative activity of P1–P4 was evaluated by the MTT standard assay and sunitinib (a well-known FDA-approved multi-kinase inhibitor) as a reference against HCT 116, HepG2, and MCF-7 cell lines, and WI38 normal cell line. […] The antiproliferative activity of P1–P4 was assessed by using an MTT standard assay and sunitinib drug towards HCT 116, HepG2, MCF-7 cells, and WI38 normal cell line using the previously described methodology.

[2] = tested on: HepG2; experiment: MTT antiproliferative assay, HepG2; format: cell-based; conditions: Homo sapiens, three different experiments, read-out: In Vitro Cytotoxicity IC50
Description: as §1

[3] = tested on: HCT 116; experiment: MTT antiproliferative assay, HCT 116; format: cell-based; conditions: Homo sapiens, three different experiments, read-out: In Vitro Cytotoxicity IC50
Description: as §1

[4] = MTT cytotoxicity assay, WI38 normal cell line; format: cell-based; conditions: human, WI38 normal cells; WI38 normal cell line; MTT; three different experiments; read-out: In Vitro Cytotoxicity IC50
Description: as §1

[5] = tested on: MCF-7; experiment: MTT antiproliferative assay, MCF-7; format: cell-based; conditions: Homo sapiens, MCF7, three different experiments, read-out: In Vitro Cytotoxicity IC50
Description: as §1

[6] = tested on: WI38 normal cell line; experiment: MTT cytotoxicity assay, WI38 normal cell line; format: cell-based; conditions: cancer cell lines vs WI38 normal cell line; formula not given
Description: as §1

| Compound | IC50 [1] [µM] | IC50 [2] [µM] | IC50 [3] [µM] | IC50 [4] [µM] | IC50 [5] [µM] | melting point [°C] | Selectivity Index [6] |
| --- | --- | --- | --- | --- | --- | --- | --- |
| Cc1nn(-c2ccccc2)c2nc[nH]c(=O)c12 [Compound P1, 3-methyl-1-phenyl-1,5-dihydro-4H-pyrazolo[3,4-d]pyrimidin-4-one] | 22.7 to 40.8 | 22.7 ± 1.7 | 28.9 ± 2.1 | 85.7 ± 4.7 | 36.3 ± 2.6 | 153 to 155 |  |
| Cc1nn(-c2ccccc2)c2ncn(C)c(=O)c12 [Compound P2, 3,5-Dimethyl-1-phenyl-1,5-dihydro-4H-pyrazolo[3,4-d]pyrimidin-4-one] | 22.7 to 40.8 | 31.9 ± 2.1 | 38.7 ± 2.3 | > 100 | 40.8 ± 2.4 | 143 to 145 |  |
| C#CCn1cnc2c(c(C)nn2-c2ccccc2)c1=O [Compound P3, 3-Methyl-1-phenyl-5-(prop-2-yn-1-yl)-1,5-dihydro-4H-pyrazolo[3,4-d]pyrimidin-4-one] | > 67 | 88.6 ± 4.7 | 89.9 ± 4.5 | 52.5 ± 3.1 | 85.2 ± 4.4 | 155 to 157 | 1.67 |
| Cc1nn(-c2ccccc2)c2ncn(CC(=O)c3ccccc3)c(=O)c12 [Compound P4, 3-Methyl-5-(2-oxo-2-phenylethyl)-1-phenyl-1,5-dihydro-4H-pyrazolo[3,4-d]pyrimidin-4-one] | > 67 | 66.8 ± 3.8 | 92.5 ± 4.9 | 44 ± 2.6 | > 100 |  |  |
| CCN(CC)CCNC(=O)c1c(C)[nH]c(/C=C2\C(=O)Nc3ccc(F)cc32)c1C [Sunitinib, sunitinib, reference compound] |  |  |  | 55.6 ± 3.3 |  |  | 0.30 |
